Read-outs that look alike come from different tables or passages of the source.
Key:
[1] = mice; 6.5 g/Kg daily for 6 weeks and 2 g/Kg for 2 years; cited from earlier work
[2] = tested on: terminal cancer; details: cited from earlier work
[3] = tested on: T24; assay: MTT cytotoxicity, T24 bladder cancer cells; format: cell-based, human; details: Homo sapiens, VC:KST-201 200:1, read-out: CD50 (μM) of each Compound tested in combination, T24
Method: (§1) As a first step, the antitumor activity of the tolans was assessed against a panel of three cancer cells lines that produce solid tumors upon implantation into animals. DU145 is an androgen-independent prostate cancer cells. T24 is a transitional cell bladder carcinoma cell. MDAH2274 (“MDAH) is an endometroid ovarian adenocarcinoma cell. To assess the selectivity of this antitumor activity, the toxicity of the tolans to normal human fibroblasts (MHRF) was examined.
Cell killing was evaluated using the colorimetric MTT assay. The assay measures the formation of a colored product from a chromogenic precursor, the tetrazole 3-[4,5-dimethylthiazol-2-yl]-2,5 diphenyltetrazolium bromide (MTT). The yellow MTT is reduced to purple formazan in the mitochondria of living cells. A solubilization solution (typically dimethyl sulfoxide or sodium dodecyl sulfate in dilute hydrochloric acid) is added to dissolve the insoluble purple formazan product into a colored solution. The absorbance of this colored solution is quantified by measuring at a certain wavelength (usually between 500 and 600 nm) by a spectrophotometer. […] This MTT assay is used widely to assess the cytotoxicity and selectivity of compounds such as anti-cancer drugs. The assay is suitable for rapid toxicity characterization of a test agent such as a drug formulation. […] A lower CD50 indicates a greater cytotoxic activity (as a lower amount of the agent is needed to achieve a fixed level of cytotoxicity). Two agents can be compared by examining the fold-increase or decrease in their CD50 values. […]

[4] = tested on: MDAH2274; assay: MTT cytotoxicity, MDAH2274 ovarian cancer cells; format: cell-based, human; details: Homo sapiens
Method: as §1
Cell killing was evaluated using the colorimetric MTT assay. The assay measures the formation of a colored product from a chromogenic precursor, the tetrazole 3-[4,5-dimethylthiazol-2-yl]-2,5 diphenyltetrazolium bromide (MTT). The yellow MTT is reduced to purple formazan in the mitochondria of living cells. A solubilization solution (typically dimethyl sulfoxide or sodium dodecyl sulfate in dilute hydrochloric acid) is added to dissolve the insoluble purple formazan product into a colored solution. The absorbance of this colored solution is quantified by measuring at a certain wavelength (usually between 500 and 600 nm) by a spectrophotometer. […] This MTT assay is used widely to assess the cytotoxicity and selectivity of compounds such as anti-cancer drugs. The assay is suitable for rapid toxicity characterization of a test agent such as a drug formulation. […] A lower CD50 indicates a greater cytotoxic activity (as a lower amount of the agent is needed to achieve a fixed level of cytotoxicity). Two agents can be compared by examining the fold-increase or decrease in their CD50 values.

[5] = tested on: advanced cancer; details: 10 g oral VC, randomized placebo-controlled trials; cited from earlier work
[6] = tested on: colon cancer; assay: Colon cancer patients (Example VIII E); format: in vivo, human
Method: Eight patients suffering from advanced colon cancer are treated daily for three weeks with an intravenous infusion of 2 g of the compounds KST-201, KST-213, KST-301 or KST-401 dissolved in saline. Two patients are assigned to each compound. The compounds are dissolved in sterile saline. […] Progression of the tumor is also arrested over the treatment period.
Another eight patients with terminal colon cancer are treated by daily bolus injections (intravenous or intramuscular) of 2 g of KST-201, KST-213, KST-301 or KST-401.

[7] = tested on: HSV-1
Text: FIG. 2. […] A 10% w/v solution of KST-301 in DMSO was applied topically to the epidermal infection site 3×/day for 5 days. Controls animals received the same volume of the DMSO vehicle at the same intervals. Lesions were scored as 0=no visible lesions, +1=papules around the infection site, +2=papules are ulcerated around the infection site with eschar formation, +3=ulcerated zosteriform spread along peripheral nerves to the flank of the animal, +4=ulcerated lesions open on the flank, and +5=death of the animal.
The lesions were scored as in the description for FIG. 2.

[8] = tested on: Mushroom tyrosinase; assay: Inhibition of mushroom tyrosinase activity; format: biochemical; details: concentration not given
Method: All chemical used for reagents were purchased from Sigma Chemical Company. KST201 at each tested concentration (1000, 250 and 100 μM) was dissolved in 10% ethanol from a master mixture of the drug prepared at 0.1M in 100% ethanol.
Mushroom tyrosinase (Sigma) was diluted in 50 mM phosphate buffer, pH 6.5 to yield a concentration of 16 U/μl. […] A master mix containing 0.5 mM L-DOPA [3,4-dihydroxy-1-phenylalanine], 10 mM Sodium L-tyrosine in 50 mM phosphate buffer, pH 6.5 was prepared. The KST-201 dilutions were preincubated with the enzyme for 20 minutes. The samples were pipetted into 24 well plates and the master mixture added quickly. The reaction was read using a kinetic format in which wells were read every 30 seconds over a course of 10 minutes at a wavelength of 475 nm using a Synergy HT Plate reader. A kinetic curve was generated for each sample compared to a total reaction with mushroom tyrosinase without a drug (total).

[9] = tested on: ovarian cancer; assay: Ovarian cancer patients (Example VIII D); format: in vivo, human; details: daily gelatin capsule 200 mg
Method: A study is carried out in a group of 40 women with ovarian cancer of various grades to determine the effect of treatment with compounds of KST-201, KST-213, KST-301 and KST-401. The administration protocol involves daily administration of a gelatin capsule containing 200 mg of active compound.

[10] = tested on: breast cancer; assay: Breast cancer prevention, skin patch (Example VIII C); format: in vivo, human; details: transdermal patch 10 mg to 100 mg daily, one-year study
Method: This study investigates whether KST-201, KST-213, KST-301 and KST-401 administered transdermally each day through a skin patch aid in preventing breast cancer or metastatic cancer following cancer therapy. Patches are prepared with a lipophilic carrier which is readily absorbed through the skin (glycerol cold cream containing glycerin and peanut oil). The HT compound is mixed with the lipophilic cream such that each patch comprises 10 mg to 100 mg of active compound. The patch is applied to the skin each day, and rapid absorption occurs. After two hours, the patch is removed.

[11] = tested on: HSV-1; assay: HSV-1 replication in infected Vero cells (plaque assay); format: cell-based, Herpes Simplex Virus-Type 1
Method: For this purpose HSV-1 replication at 24, 48 and 72 h was examined in the presence or absence of varying concentrations of the polyphenol.
The SI is the ratio of the CD50 divided by a selected inhibitory concentration (IC %).
Viral inhibition by Tolan-3 appeared to occur after viral entry into cells. […] Subsequently, the compound was removed and replaced with culture medium alone, and the incubated continued for 48 or 72 more hrs. In a second experiment, HSV-1 infected Vero cells were incubated with 350 μM Tolan-3 for 48 h. Thereafter, the Tolan-3 was removed and replaced by medium and the incubation continued for an additional 24 h. Viral titers were calculated by a standard plaque assay.

[12] = tested on: Vero cells; assay: Cytotoxicity (CD50) on Vero cells; format: cell-based; details: 48 hours of exposure
Text: See Example II for tumor cell cytotoxicity of these compounds. […] NAB group 32 contains two compounds, Tolan-2 (also designated herein as KST-201) and Stil-2. Based on the NAB, they were classified as topological isomers. However, chemically they differ because Stil-2, a […], contained a double bonded linker, while Tolan-2 contained a triple bonded linker. The cytotoxicity of the two molecules on Vero cells differed markedly: Tolan-2 was less toxic than Stil-2.

[13] = tested on: HSV-1; assay: Direct inactivation, attachment and penetration of HSV-1; format: cell-based, Herpes Simplex Virus-Type 1
Method: To determine whether Tolan-3 directly inactivated the virus, Tolan-3 was incubated with HSV-1 at room temperature for 1, 30 or 60 minutes while controls were also incubated with HSV-1 at room temperature without Tolan-3. The treated or control virus was plated onto Vero cells.

[14] = tested on: bladder cancer; assay: Bladder cancer patients (Example VIII B); format: in vivo, human; details: intravenous 10 μg to 5 mg/kg over three months
Method: A group of 20 men and 20 women aged 50-75 with bladder cancer are treated by intravenous injection of between 10 μg and 5 mg/kg of KST-201, KST-213, KST-301 or KST-401. Each compound is given to a group of 5 men and 5 women) over a period of three months. Clinical, radiographic and histopathological tests show significant remission in 35% of patients, accompanied by signs of cell death in 45%. There are no significant differences between the results with the four compounds.

[15] = tested on: prostate cancer; assay: Prostate cancer patients (Example VIII A); format: in vivo, human; details: daily 10 μg to 5 mg/Kg; no significant differences between the four groups
Method: A group of 40 men aged 55-75 suffering from prostate cancer receive a daily dosage of between 10 μg and 5 mg/Kg body weight of KST-201, KST-213, KST-301 or KST-401 (10 patients per compound). Examination of the patients by clinical, radiographic and histopathological tests show significant shrinkage in tumors, and signs of cell death in 38% of the patients; there are no significant differences between the four treatment groups.

[16] = intravenous infusion 2 g daily for three weeks

## O=C1O[C@H]([C@@H](O)CO)C([O-])=C1O.[Na+] [VC, sodium ascorbate, reference compound]
[1]
  Mortality, weight changes, blood chemistry, hematology, histology, other pathologies: no abnormal rates of mortality
[2]; 100 terminal cancer patients, 10 g/day i.v. 10 days then oral, controls 50 days
  Mean survival time (MST): > 210 days
[2]; 100 terminal cancer patients
  MST, times greater than that of the controls: more than 4.2 times
[2]; six ovarian cancer subjects, controls 71 days
  MST of subjects with ovarian cancer: 148 days
[3]; T-24, 24 h, 1 day
  IC50: 638 µM
[3]; T-24, 48 h, 2 days
  IC50: 634 µM
[4]; 24 h, MTT, 1 day incubation, read-out: CD50 against MDAH, compound tested individually
  IC50: 937 µM
[4]; 24 h, VC:KST-201 400:1, 1 day, read-out: CD50 (μM) of each Compound tested in combination, MDAH 2274
  IC50: 466 µM
[4]; 48 h, MTT, 2 days incubation, read-out: CD50 against MDAH, compound tested individually
  IC50: 900 ± 46.7 µM
[4]; 48 h, VC:KST-201 400:1, 2 days, read-out: CD50 (μM) of each Compound tested in combination, MDAH 2274
  IC50: 389 ± 9.6 µM
[4]; 72 h, MTT, 3 days incubation, read-out: CD50 against MDAH, compound tested individually
  IC50: 879 µM
[4]; 72 h, VC:KST-201 400:1, 3 days, read-out: CD50 (μM) of each Compound tested in combination, MDAH 2274
  IC50: 393 µM
[5]
  Benefit of oral VC treatment: no benefits of oral VC treatment

## Oc1ccc(C#Cc2cc(O)cc(O)c2)cc1 [KST-301, 3,4′,5-trihydroxytolan]
[6]; daily bolus injections (intravenous or intramuscular) of 2 g
  Dissemination of the tumors: dissemination of the tumors is diminished
[6]; [16]
  Cancer marker carcinoembryonic antigen (CEA): significant reduction
  Progression of the tumor: arrested
[7]; 5% w/v solution, topical, hairless mice
  Number and severity of HSV lesions: significantly reduced the number and severity of HSV lesions
[7]; 10% w/v solution in DMSO, topical 3×/day for 5 days, hairless mice
  Severity of HSV-1 lesions: significantly reduced
[7]; topical solution in DMSO
  Treated animals in which lesion formation was prevented: 67%
[7]; topical solution in DMSO, controls 83-100%
  Treated animals showing evidence of HSV infection: 33%
[7]; topical solution in DMSO, scale 0 to +5, controls 3.8-4 by days 8 and 9
  Maximum (average) lesion score: 0.8-1.2
[7]; topical, hairless mice
  Dermal toxicity (erythema, scaling, crusting, lichenification, excoriation): no apparent dermal toxicity
[8]
  % inhibition of mushroom tyrosinase activity: 40.1±9.9%
[9]
  Rate of production of ovarian cancer markers (Muc-1, Sp17): significant decrease
  Tumor growth during study period: Tumors regress or show no further growth
[10]
  Breast cancer or metastatic cancer in high-risk group: does not show any evidence of breast cancer or other metastatic cancer
[11]; 350 μM, removed as late as 48 hours post infection
  Reversibility of HSV-1 inhibition after removal of compound: HSV-1 replication recovered
[11]; 48 h post-infection
  SI50 (selectivity index, CD50 divided by IC50): > 63
[11]; Human alphaherpesvirus 1, Vero, read-out: IC50, concentration at which 50% of HSV-1 replication was inhibited, viral assays at lower compound concentrations
  IC50: 6.37 µM
[11]; at CD50, 75% and 50% of CD50, 24, 48, 72 h
  Effect on HSV-1 viral replication in Vero cells (in words): significant anti-HSV activity
[12]
  CD50: 350 µM
  Log CD50: 2.54
[13]
  Inhibition of HSV-1 attachment or penetration: did not inhibit HSV-1 attachment or penetration
[13]; incubated with HSV-1 at room temperature 1, 30 or 60 minutes
  Direct inactivation of HSV-1: did not directly inactivate HSV-1
[14]
  Patients with signs of cell death: 45%
[14]; no differences between compounds
  Patients with significant remission: 35%
[15]
  Patients with significant shrinkage in tumors, and signs of cell death: 38%

— US8716355B2, “Hydroxylated tolans and related compounds in the treatment of a cancer” (Kent State University, priority 2007, dated 2014)
